Data from publication PMC9573605, “Exploring Nitric Oxide (NO)-Releasing Celecoxib Derivatives as Modulators of Radioresponse in Pheochromocytoma Cells” (Molecules, 2022).

Legend:
recombinant human COX-2 = target: T1, recombinant human COX-2 (Homo sapiens, UniProt P35354); experiment: COX Fluorescent Inhibitor Screening Assay, COX-2; type: biochemical; settings: for SI: COX-1 vs COX-2 selectivity index; for IC50: human COX-2
T1 construct: purchased Cayman Chemical 700100
T1 sequence (P35354 18-604): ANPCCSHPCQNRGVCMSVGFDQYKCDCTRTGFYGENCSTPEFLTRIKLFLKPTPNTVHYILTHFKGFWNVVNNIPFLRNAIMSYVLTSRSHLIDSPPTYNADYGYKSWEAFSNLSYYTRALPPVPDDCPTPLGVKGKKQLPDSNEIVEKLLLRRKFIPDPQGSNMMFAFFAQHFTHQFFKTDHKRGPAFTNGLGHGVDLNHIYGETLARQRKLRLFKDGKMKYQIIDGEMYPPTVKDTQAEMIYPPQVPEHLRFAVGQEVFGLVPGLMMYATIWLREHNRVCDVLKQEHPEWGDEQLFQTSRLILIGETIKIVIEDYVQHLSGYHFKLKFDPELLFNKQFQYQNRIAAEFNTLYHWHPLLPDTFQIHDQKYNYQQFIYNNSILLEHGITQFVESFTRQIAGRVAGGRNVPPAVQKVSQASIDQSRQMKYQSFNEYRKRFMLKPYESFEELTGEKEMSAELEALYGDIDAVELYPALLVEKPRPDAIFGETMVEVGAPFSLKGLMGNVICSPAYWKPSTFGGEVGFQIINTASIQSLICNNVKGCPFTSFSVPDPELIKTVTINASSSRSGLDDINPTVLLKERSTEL
Experimental: (§1) COX inhibition (Table 1) was evaluated in vitro using purified ovine COX-1 and recombinant human COX-2 enzyme in a commercially available “COX Fluorescent Inhibitor Screening Assay KIT” (item no. 700100, Cayman Chemical, Ann Arbor, MI, USA). Celecoxib served as a reference and inhibition data concerning 4a, 4e, 5a and 5e were previously reported by us and is herein discussed for comparison.
(§2) COX inhibition activity against ovine COX-1 and human COX-2 was determined using the fluorescence-based COX assay “COX Fluorescent Inhibitor Screening Assay Kit” (catalog number 700100; Cayman Chemical, Ann Arbor, MI, USA) according to the manufacturer’s instructions. Compounds 6a–d were screened at a concentration of 100 µM, all others were assayed in a concentration range of 0.1 nM to 100 μM in duplicate.

[1] = system: MPC-HIF2α tumor spheroids; experiment: Spheroid regrowth assay with external X-ray irradiation; type: cell-based, mouse; settings: X-ray 15 Gy; 10 µM compound added 2 h post irradiation; controls 83%
Experimental: As a first pilot study, growth responses of MPC-HIF2α spheroids were investigated after two different radiation treatments such as single-dose external beam irradiation (X-ray) and incubation with [^177Lu]LuCl3, respectively. NO-COXIBs were tested at 10 µM for additional effects on radiation treatments against a vehicle-treated control (w/o) and celecoxib (Ce).
The log2-fold change in spheroid diameter is given as a standardized parameter for spheroid growth, which is positive for growing, near zero for stagnating and negative for shrinking spheroids. Furthermore, regrowth probabilities are given as a parameter to compare how many of the overall studied spheroids in one group recovered within 14 days. Radioprotective effects occurred when compounds were added 2 h before irradiation. In this setup, all compounds accelerated the increase in spheroid size during the regrowth phase compared to controls (Figure 5A, upper panel). Regrowth probabilities of 67–100% under NO-COXIB treatment remained however similar to controls (83%). Radiosensitizing effects occurred when compounds were added 2 h post irradiation. In this setup, all compounds decelerated the increase in spheroid size during the regrowth phase compared to controls.
Genetically modified mouse pheochromocytoma (MPC) cells expressing a codon-optimized Epas1 gene (encoding HIF2α) were cultured as three-dimensional tumor spheroids as published elsewhere. External X-ray beam radiation treatment and [^177Lu]LuCl3 radionuclide treatment was performed as reported previously with some modifications. In brief, spheroids were irradiated with a 200 kV photon beam using a Maxishot X-ray system equipped with a Y.TU/320-D03 tube (YXLON, Hamburg, Germany), growth of spheroids (n = 6) with diameters between 300−400 µm was measured in response to one fixed radiation dose, 15 Gy for X-ray treatment, and 0.25 MBq/mL of [^177Lu]LuCl3 for radionuclide treatment corresponding to a cumulative dose of approximately 2 Gy delivered for 6 days. The applied radiation doses were selected based on the half-maximal spheroid control doses (SCD50) as previously determined for MPC HIF2α spheroids by us. Spheroids were considered as regrown at 100 µm increase in diameter compared to treatment start or at a diameter growth rate of 15 µm per day. Results are reported as spheroid regrowth probability (%).
Figure 5 Effects of NO-COXIBs on radiation treatments of MPC-HIF2α tumor spheroids. (A) Growth responses to X-ray treatment with a radiation dose of 15 Gy in combination with 10 µM NO-COXIBs added to the medium at indicated time points before or after irradiation. (B) Growth responses to [^177Lu]LuCl3 treatment with an initial activity concentration of 0.25 MBq/mL in combination with NO-COXIBs; log2 fold changes in diameter indicate the number of diameter doublings compared to treatment start; 14-day regrowth probability indicates the fraction of spheroids able to regrow within 14 days after treatment start; (black arrows) time point or duration of radiation treatment; (w/o) vehicle controls are shown as black lines; (Ce) celecoxib.

[2] = Lipophilicity logD7.4 by HPLC method; type: physicochemical; settings: HPLC retention on ODP-50 4B column (Shodex Asahipak), phosphate buffer pH 7.4
Experimental: The lipophilicity of all synthesized compounds was determined as logD7.4, HPLC value by an HPLC method originally described by Donovan and Pescatore.
The logD7.4HPLC value was determined as previously reported by us utilizing an HPLC method originally described by Donovan and Pescatore.

purified ovine COX-1 = target: T2, purified ovine COX-1 (Ovis aries, UniProt P05979); experiment: COX Fluorescent Inhibitor Screening Assay, COX-1; type: biochemical
T2 construct: purchased Cayman Chemical 700100
T2 sequence (P05979 25-600): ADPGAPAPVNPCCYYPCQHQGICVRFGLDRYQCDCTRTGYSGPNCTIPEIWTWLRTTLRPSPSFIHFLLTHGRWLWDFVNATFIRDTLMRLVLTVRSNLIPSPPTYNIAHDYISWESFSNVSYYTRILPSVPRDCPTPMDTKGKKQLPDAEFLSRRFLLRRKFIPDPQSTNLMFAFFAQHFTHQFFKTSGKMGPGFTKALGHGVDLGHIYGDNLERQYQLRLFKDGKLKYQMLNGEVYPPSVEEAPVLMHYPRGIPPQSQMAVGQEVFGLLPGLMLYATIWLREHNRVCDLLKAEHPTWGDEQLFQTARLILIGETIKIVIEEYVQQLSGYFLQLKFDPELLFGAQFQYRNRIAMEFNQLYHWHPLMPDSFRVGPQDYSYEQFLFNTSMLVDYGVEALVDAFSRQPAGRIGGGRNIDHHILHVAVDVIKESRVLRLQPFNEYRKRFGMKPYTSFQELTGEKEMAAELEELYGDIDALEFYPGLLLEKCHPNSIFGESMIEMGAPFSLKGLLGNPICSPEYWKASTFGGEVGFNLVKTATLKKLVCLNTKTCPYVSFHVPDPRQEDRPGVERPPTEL
Experimental: as §1, §2

[3] = screened at a concentration of 100 µM

| Compound | SI (recombinant human COX-2) | IC50 (recombinant human COX-2; 0.1 nM to 100 µM in duplicate) | 14-day regrowth probability [1] | chromatographic logD [2] | IC50 (purified ovine COX-1; 0.1 nM to 100 µM in duplicate) | IC50 (recombinant human COX-2; [3]) | IC50 (purified ovine COX-1; [3]) |
| --- | --- | --- | --- | --- | --- | --- | --- |
| Cc1ccc(-c2c(Cl)c(CO[N+](=O)[O-])nn2-c2ccc(S(C)(=O)=O)cc2)cc1 [5c, {4-Chloro-1-[4-(methylsulfonyl)phenyl]-5-(p-tolyl)-1H-pyrazol-3-yl}methyl nitrate] | >47 | 2.12 µM | 17% | 4.04 | > 100 µM |  |  |
| COc1ccc(-c2c(Cl)c(CO[N+](=O)[O-])nn2-c2ccc(S(C)(=O)=O)cc2)cc1 [5d, {4-Chloro-5-(4-methoxyphenyl)-1-[4-(methylsulfonyl)phenyl]-1H-pyrazol-3-yl}methyl nitrate] | >92 | 1.08 µM | 17% | 4.02 | > 100 µM |  |  |
| COc1ccc(-c2cc(CO[N+](=O)[O-])nn2-c2ccc(S(N)(=O)=O)cc2)cc1 [5f, [5-(4-Methoxyphenyl)-1-(4-sulfamoylphenyl)-1H-pyrazol-3-yl]methyl nitrate] | >84 | 1.18 µM | 17% | 3.32 | > 100 µM |  |  |
| CCC(=O)NS(=O)(=O)c1ccc(-n2nc(CO[N+](=O)[O-])c(Cl)c2-c2ccc(C)cc2)cc1 [6a, {4-Chloro-1-[4-(N-propionylsulfamoyl)phenyl]-5-(p-tolyl)-1H-pyrazol-3-yl}methyl nitrate] |  |  | 33–40% | 2.27 |  | > 100 µM | > 100 µM |
| CCC(=O)NS(=O)(=O)c1ccc(-n2nc(CO[N+](=O)[O-])c(Cl)c2-c2ccc(OC)cc2)cc1 [6b, {4-Chloro-5-(4-methoxyphenyl)-1-[4-(N-propionylsulfamoyl)phenyl]-1H-pyrazol-3-yl}methyl nitrate] |  |  | 0% | 2.1 |  | > 100 µM | ~100 µM |
| CCC(=O)NS(=O)(=O)c1ccc(-n2nc(CO[N+](=O)[O-])cc2-c2ccc(C)cc2)cc1 [6c, {1-[4-(N-Propionylsulfamoyl)phenyl]-5-(p-tolyl)-1H-pyrazol-3-yl}methyl nitrate] |  |  | 33–40% | 1.82 |  | > 100 µM | > 100 µM |
| CCC(=O)NS(=O)(=O)c1ccc(-n2nc(CO[N+](=O)[O-])cc2-c2ccc(OC)cc2)cc1 [6d, {5-(4-Methoxyphenyl)-1-[4-(N-propionylsulfamoyl)phenyl]-1H-pyrazol-3-yl}methyl nitrate] |  |  | 33–40% | 1.55 |  | > 100 µM | > 100 µM |
